The subject of one experiment is Fibroblasts. In words: Promotion of collagen biosynthesis (procollagen type (I) ELISA in fibroblasts). Type of experiment: cell-based. The conditions noted are these: 2 μg/ml, 24 hours, untreated group set to 100. Here is the method: The collagen biosynthesis promoting effect of the theasapogenol derivative obtained in Preparation Example 1 was measured in comparison with TGF-beta of a positive control.
Fibroblasts were seeded by 10^5 in one well of a 24-well plate and incubated until they grew up to about 90%. This was incubated in serum-free DMEM medium for 24 hours and treated with 2 μg/ml of each of the theasapogenol derivative obtained in Preparation Example 1 and TGF-beta, and incubated in a CO2 incubator for 24 hours. Thereafter, the supernatant was taken out and subjected to the observation using the ELISA kit (procollagen type (I)) to determine whether the procollagen increased or decreased. The results are presented in Table 1, and the collagen synthesizing ability was compared by setting the collagen synthesizing ability of the untreated group to 100.

In the next experiment the target is T1, 5α-reductase (Homo sapiens, UniProt P31213).
T1 construct: 3×FLAG; expressed in transfected cells; host or cells: HEK293
T1 sequence (P31213 1-254): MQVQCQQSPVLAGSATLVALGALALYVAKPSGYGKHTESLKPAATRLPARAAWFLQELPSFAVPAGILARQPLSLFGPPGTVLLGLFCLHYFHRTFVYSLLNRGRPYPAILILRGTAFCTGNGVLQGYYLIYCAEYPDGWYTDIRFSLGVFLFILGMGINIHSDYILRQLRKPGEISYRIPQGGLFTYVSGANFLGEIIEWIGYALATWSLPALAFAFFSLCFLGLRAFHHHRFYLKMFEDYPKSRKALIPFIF
The experiment in a line: Inhibition of 5α-reductase activity ([14C]testosterone to [14C]dihydrotestosterone conversion in HEK293-5αR2 cells). Type of experiment: cell-based. As to conditions: 2 μg/ml, 2 hours at 37° C.; for Conversion rate (%): radioactivity to DHT area/total radioactivity. The protocol:
The 5α-reductase activity inhibiting effect was measured by the ratio of [^14C]testosterone converted into [^14C]dihydrotestosterone in HEK293-5αR2 cells. HEK293 cells were transfected with p3×FLAG-CMV-5αR2 and incubated in a 24-well plate at a density of 2.5×10^5 cells per well (Park et al., 2003, JDS Vol. 31, pp. 91-98). The next day, the medium was replaced with a fresh medium containing an enzyme substrate and an inhibitor, and 0.05 μCi [^14C]testosterone (Amersham Pharmacia biotech, UK) was used as the substrate of the medium. In order to confirm the degree of inhibition, 2 μg/ml of theasapogenol derivative obtained in Preparation Example 1 was added to the medium as a test substance, and the medium was incubated in a 5% CO2 incubator at 37° C. for 2 hours.
Thereafter, the incubated mediums were collected and testosterone was extracted with 800 μl of ethyl acetate. The upper organic solvent layer was separated and dried, and the residue was dissolved again in 50 μl of ethyl acetate and developed on the silica plastic sheet kieselgel 60 F254 by using ethyl acetate-hexane (1:1) as a developing solvent. After the plastic sample was dried in the air, a bath system was used to measure the amounts of isotopes, the dried plastic sheet and an x-ray film were placed in a bath cassette together, and the amounts of isotopes in testosterone and dihydrotestosterone remaining on the film after one week were measured.
(1) Conversion rate: radioactivity to DHT area/total radioactivity
(2) Inhibition rate: 100×(conversion rate of control group−conversion rate of sample)/conversion rate of control group

The mark [1] stands for this setting: 100×(conversion rate of control group−conversion rate of sample)/conversion rate of control group.

Take “21-O-angeloyltheasapogenol E3 [Preparation Example 1]”: the “Collagen synthesizing ability (%)” value with Fibroblasts is recorded as 145.1 ± 12.5%. At 5α-reductase (setting [1]), the “Inhibition rate (%)” value is on record as 38%. The “Conversion rate (%)” value at 5α-reductase is given as 30%.

In general, inhibition refers to how much of the control response was suppressed. The low end stands for a weak effect, the high end for a strong effect. At 5α-reductase (setting [1]), `CC(C)(C)NC(=O)[C@H]1CC[C@H]2[C@@H]3CC[C@H]4NC(=O)C=C[C@]4(C)[C@H]3CC[C@]12C` [Finasteride, reference compound] displayed an inhibition at 2 µg/mL of 44%. Further, the “Conversion rate (%)” value on 5α-reductase amounted to 27%.

The record behind these values is patent US20180078482A1, “COMPOSITION CONTAINING THEASAPOGENOL DERIVATIVE AS ACTIVE INGREDIENT” (AMOREPACIFIC CORPORATION, priority 2015, published 2018).
